# Laboratory results taken from patent US5380731A, “Antiallergic compounds” (Merrell Dow Pharmaceuticals Inc., priority 1993, dated 1995).
# Where a name gives a salt, the structure may show the parent alone.
# Target: T1, H1 receptor (Cavia porcellus, UniProt P31389)
# T1 construct: Strips of guinea pig ileum, 2 cm in length, were set up in an isolated organ bath; from tissue; host or cells: guinea pig ileum strips
# Test: guinea pig ileum screen (antagonism of histamine-induced contraction, pA2)
# Type: cell-based
# Details: isolated guinea pig ileum strips, histamine dose response, 20 minutes incubation; pA2 by the method of Schild (Schild plots)
# Procedure: It is based upon the phenomenon that histamine causes the contraction of guinea pig ileum. Antihistamine blocks this contraction. This test may be performed in the following manner:
# Strips of guinea pig ileum, 2 cm in length, were set up in an isolated organ bath in tyrode's solution which had the following composition in […] (NaCl, 136.89; KCl, 2.68; CaCl2, 1.8; MgCl2, 1.05; NaH2 PO4, 0.42; NaHCO3, […] were measured isotonically (Grass FTO3C transducer coupled with silver springs) under one gram resting tension and recorded in a Grass polygraph recorder. Cumulative histamine dose response experiments were then performed before and after treatment of tissues with test compounds (20 minutes incubation). Dose ratios were determined graphically at ED50 response levels from the histamine dose response curves, and Schild plots (Arunlakshana, O. and Schild, H. O. Some quantitative uses of drug antagonists. Br. J. Pharmacol. Chemother. 14: 48-58, 1959) were constructed to determine the pA2 values using inverse regression line analysis (Finney, D. J. Statistical methods in biological assays. Hafner Press, New York, 1964). The pA2 is defined as the negative logarithm of the molar concentratrion of antagonist which would increase the ED50 value by […]. In some experiments, pA2 values were estimated according to the method described by van Rossum (Van Rossum, J. M., Cumulative dose-response curves: Technique for the making of dose-response curves in isolated organs and the evaluation of drug parameters. Arch. Int. Pharmacodyn. Ther. 143: 299-330, 1963) which uses the following relationship: pA2=-log ([B]/(dose ratio-1)), where [B] refers to the molar concentration of antagonists used. The test compounds were prepared in ethanol (0.1% v/v).
# T1 sequence (P31389 whole entry): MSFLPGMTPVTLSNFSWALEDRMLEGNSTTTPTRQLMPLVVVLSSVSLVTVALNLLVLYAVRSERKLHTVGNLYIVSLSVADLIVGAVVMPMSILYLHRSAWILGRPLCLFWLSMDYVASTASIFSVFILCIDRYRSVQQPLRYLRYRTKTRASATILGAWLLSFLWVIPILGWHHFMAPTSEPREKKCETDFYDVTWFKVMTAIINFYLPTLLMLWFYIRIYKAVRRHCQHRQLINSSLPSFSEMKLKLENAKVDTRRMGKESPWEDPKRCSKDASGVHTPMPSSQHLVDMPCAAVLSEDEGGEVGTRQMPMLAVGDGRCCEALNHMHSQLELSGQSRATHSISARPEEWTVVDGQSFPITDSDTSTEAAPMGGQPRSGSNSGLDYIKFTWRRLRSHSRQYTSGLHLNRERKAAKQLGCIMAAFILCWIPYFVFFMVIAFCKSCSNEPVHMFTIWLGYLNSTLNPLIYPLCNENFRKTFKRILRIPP
row,Kb,SMILES
1,1.78 nM,"COC(=O)COCCN1CCC(C(=O)c2nc3ccccc3n2Cc2ccc(F)cc2)CC1 [Example 2, 1-[[(4-Fluorophenyl)methyl]-1H-benzimidazol-2-yl][1-(carbomethoxymethoxyethyl)-4-piperidinyl]methanone]"
2,0.661 nM,"CN1CCC(C(=O)c2nc3ccccc3n2Cc2ccc(F)cc2)CC1 [Example 28, 1[[(4-Fluorophenyl)methyl]-1H-benzimidazol-2-yl][1-methyl-4-piperidinyl]methanone]"
3,2.34 nM,"CN1CCC(C(O)c2nc3ccccc3n2Cc2ccc(F)cc2)CC1 (centres unmarked) [Example 29, 1-[[(4-Fluorophenyl)methyl]-1H-benzimidazol-2-yl][1-methyl-4-piperidinyl]methanol]"
4,2.4 nM,"O=C(CN1CCC(C(=O)c2nc3ccccc3n2Cc2ccc(F)cc2)CC1)Nc1nnn[nH]1 [Example 9, 1-[[(4-Fluorophenyl)methyl]-1H-benzimidazol-2-yl][1-(tetrazoleacetamide)-4-piperidinyl]methanone]"

# Same assay, conditions: isolated guinea pig ileum strips, histamine dose response, 20 minutes incubation; pA2 estimated by the method of Van Rossum
pA2 value in the guinea pig ileum screen,Kb,SMILES
7.7,,"CCN(CC)C(=O)N1CCC(C(=O)c2nc3ccccc3n2Cc2ccc(F)cc2)CC1 [Example 6, 1-[[(4-Fluorophenyl)methyl]-1H-benzimidazol-2-yl][1-(N,N-diethylcarbamoyl)-4-piperidinyl]methanone]"
,> 100 nM,"CC(=O)N1CCC(C(=O)c2nc3ccccc3n2Cc2ccc(F)cc2)CC1 [Example 7, 1-[[(4-Fluorophenyl)methyl]-1H-benzimidazol-2-yl-][1-(acetyl)-4-piperidinyl]methanone]"
,10.2 nM,"O=C(c1nc2ccccc2n1Cc1ccc(F)cc1)C1CCN(C(=O)C(F)(F)F)CC1 [Example 8, 1-[[(4-Fluorophenyl)methyl]-1H-benzimidazol-2-yl][1-(trifluoroacetyl)-4-piperidinyl]methanone]"

# Continued, compound first:
SMILES,pA2 value in the guinea pig ileum screen,Kb
"CCOCCn1c(C(=O)C2CCN(CCc3ccc(OC)cc3)CC2)nc2ccccc21 [Example 1, 1-[[(2-Ethoxy)ethyl]-1H-benzimidazol-2-yl][1-[2-(4-methoxyphenyl)ethyl]-4-piperidinyl]methanone hydrochloride]",,0.407 nM
"CCOCCn1c(C(=O)C2CCN(C(=O)OC(C)(C)C)CC2)nc2ccccc21 [Example 1 Step a, 1-[[(2-Ethoxy)ethyl]-1H-benzimidazol-2-yl][1-(t-butyloxycarbonyl)-4-piperidinyl]methanone]",,603 nM
"CC(C)(C)OC(=O)N1CCC(C(=O)c2nc3ccccc3n2Cc2ccc(F)cc2)CC1 [Example 2 Step a, 1-[[(4-Fluorophenyl)methyl]-1H-benzimidazol-2-yl][1-(t-butyloxycarbonyl)-4-piperidinyl]methanone]",,> 100 nM
"O=C(O)CN1CCC(C(=O)c2nc3ccccc3n2Cc2ccc(F)cc2)CC1 [Example 4, 1-[[(4-Fluorophenyl)methyl]-1H-benzimidazol-2-yl][1-(carboxymethyl)-4-piperidinyl]methanone]",,2.34 nM
